From PubChem BioAssay (NCI)
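Grown in 96-well plates, cells were treated for 48 hours with each compound at five concentrations. Insufficient inhibition: endpoint recorded as highest concentration tested. TGI denotes the concentration required for complete inhibition of growth.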 Where a SMILES comes first, the peptide text is derived from it. The star is where a group is joined. Boc = CC(C)(C)OC(=O)*; Bn = c1ccc(C*)cc1

Assays:
Test in all cases: NCI tumour cell line growth inhibition, 48 h
SK-MEL-28 melanoma = system: SK-MEL-28 melanoma
MOLT-4 leukemia = system: MOLT-4 leukemia
786-0 renal = system: 786-0 renal
HOP-92 NSCLC = system: HOP-92 NSCLC
SNB-19 CNS = system: SNB-19 CNS
PC-3 prostate = system: PC-3 prostate
A498 renal = system: A498 renal
RPMI-8226 leukemia = system: RPMI-8226 leukemia
CAKI-1 renal = system: CAKI-1 renal
UO-31 renal = system: UO-31 renal
HL-60(TB) leukemia = system: HL-60(TB) leukemia
NCI-H226 lung = system: NCI-H226 lung

Compound | TGI (SK-MEL-28 melanoma) | TGI (MOLT-4 leukemia) | TGI (786-0 renal) | TGI (HOP-92 NSCLC) | TGI (SNB-19 CNS) | TGI (PC-3 prostate) | TGI (A498 renal) | TGI (RPMI-8226 leukemia) | TGI (CAKI-1 renal) | TGI (UO-31 renal) | TGI (HL-60(TB) leukemia) | TGI (NCI-H226 lung)
NC(N)=NS(=O)(=O)c1ccc(NNc2c3ccccc3nc3c(C(=O)Nc4ccc(S(=O)(=O)Nc5ncccn5)cc4)cccc23)cc1 | > 100 µM | > 100 µM | > 100 µM | > 100 µM | > 100 µM | > 100 µM | > 100 µM | > 100 µM | > 100 µM | 83.7 µM | > 100 µM | 
O=C(Nc1ccccc1)c1cc(S(=O)(=O)NC2=NC(c3ccccc3)c3cc(Cl)ccc3N2)c(SSc2cc(Cl)c(C(=O)Nc3ccccc3)cc2S(=O)(=O)NC2=NC(c3ccccc3)c3cc(Cl)ccc3N2)cc1Cl (stereo not given) | > 100 µM | > 58.3 µM | > 100 µM | > 100 µM | > 100 µM | > 100 µM |  | > 100 µM | > 100 µM | > 100 µM | > 53.9 µM | > 100 µM
CCOC(=O)Nc1[nH]cc(-c2ccccc2)c1C#N | > 100 µM | > 100 µM | > 100 µM |  | > 100 µM | > 100 µM | > 100 µM | > 100 µM |  | > 100 µM | > 100 µM | > 100 µM
CC1CC(OP(=O)(OCc2ccccc2)OCc2ccccc2)[C@@H](OCc2ccccc2)C(OCc2ccccc2)C1OCc1ccccc1 (stereo not given in full) | > 100 µM | > 100 µM | > 100 µM |  | > 100 µM | > 100 µM |  | > 100 µM | > 100 µM | > 100 µM | > 100 µM | > 100 µM
COc1cccc(C2c3cc4c(cc3OC(N3CCCCC3)C2C)OCO4)c1O (stereo not given) | 73.2 µM | 37.6 µM | 26.2 µM | 46.8 µM | > 100 µM | > 79.8 µM |  | 12.3 µM | > 53 µM | 81.1 µM | 5.92 µM | 46.7 µM
Nc1c(C(=O)O)nnc2ccc(Cl)cc12 |  | > 100 µM | > 100 µM |  | > 100 µM | > 100 µM | > 100 µM | > 100 µM | > 100 µM | > 100 µM | > 100 µM | > 100 µM
Cc1ccc(-c2c(C#N)c(-c3ccc(C)cc3)n(NS(=O)(=O)c3ccccc3)c(=O)c2C#N)cc1 | > 100 µM | 64.7 µM | > 100 µM | > 100 µM | > 100 µM | > 100 µM | > 100 µM | 38.8 µM | > 100 µM |  |  | > 100 µM
CCCC(=O)NC(NC1CCCCC1)(C(=O)OCC)C(F)(F)F (stereo not given) | > 100 µM | > 100 µM | > 100 µM | > 100 µM | > 100 µM | > 100 µM |  | > 100 µM |  | > 100 µM | > 100 µM | > 100 µM
CC1=NN(c2nc(N)nc(/C(C#N)=C\c3ccc([N+](=O)[O-])s3)n2)C(C)(C)C1 | 1.21 µM | 0.379 µM | 0.289 µM |  | 5.97 µM | 0.429 µM | 26.8 µM | 0.0872 µM | > 21 µM | 0.278 µM |  | 8.18 µM
Cc1ccc2c(c1)C(=S)N1CSCC1c1nncn1-2 (stereo not given) | > 100 µM | > 100 µM | > 100 µM |  | > 100 µM | > 100 µM | > 100 µM | > 100 µM | > 100 µM | > 100 µM |  | > 100 µM
COC(=O)C(CC(C)C)NC(=O)C(C)NC(=O)C(Cc1ccc(OCc2ccccc2)cc1)NC(=O)C(COCc1ccccc1)NC(=O)OC(C)(C)C (stereo not given) (Boc-S(Bn)Y(Bn)AL-OMe; configuration not given here) | > 100 µM | > 100 µM | > 100 µM | > 100 µM | > 100 µM | > 100 µM |  | > 100 µM | > 100 µM | > 100 µM | > 100 µM | > 100 µM
Cc1n(Cc2ccccc2)c2c([n+]1C)C(=O)c1ccccc1C2=O | 0.541 µM |  | 0.877 µM | 1.49 µM | 0.0916 µM | 0.999 µM | 0.653 µM | 39.1 µM | 11.3 µM | 20.9 µM |  | 0.514 µM
CN(CCSCCN(C)C(=O)OC(C)(C)C)C(=O)OC(C)(C)C | > 100 µM | > 100 µM | > 100 µM | > 100 µM | > 100 µM | > 100 µM |  |  | > 100 µM | > 100 µM |  | 
CN1CCc2c([nH]c3ccccc23)C1 | > 100 µM | > 100 µM | > 100 µM |  | > 100 µM | > 100 µM |  | > 100 µM | > 100 µM | > 100 µM | > 100 µM | > 100 µM
CN=C(n1ccnc1)n1ccnc1 | > 100 µM | > 100 µM | > 100 µM |  | > 100 µM | > 100 µM | > 100 µM | > 100 µM | > 100 µM | > 100 µM | > 100 µM | > 100 µM
Cc1ccc(/C=N/Nc2cc(C)c3cccc(C)c3n2)s1 | > 100 µM | 47.7 µM | 11 µM | 59.4 µM | > 100 µM | 40.8 µM |  | 67.4 µM | > 100 µM | 38.7 µM |  | 37.5 µM
CC1(C)[C@@H](Cn2ccc(=O)[nH]c2=O)CC[C@@]1(C)CO | > 100 µM |  | > 100 µM | > 100 µM | > 100 µM | > 100 µM | > 100 µM |  | > 100 µM | > 100 µM |  | > 100 µM
Nc1ccc2c(c1)C(=O)N1CCC[C@H]1C(=O)N2 | > 100 µM | > 100 µM | > 100 µM | > 100 µM | > 100 µM | > 100 µM | > 100 µM | > 100 µM | > 100 µM | > 100 µM |  | > 100 µM
CC1(C)/C(=N\NC(N)=O)C2CCC1C2 (stereo not given) | > 100 µM | > 100 µM | > 100 µM | > 100 µM | > 100 µM | > 100 µM |  | > 100 µM | > 100 µM | > 100 µM | > 100 µM | > 100 µM
CCCNC(=O)NNC(=O)c1c[nH]c2nc(C)ccc2c1=O | > 100 µM | > 100 µM | > 100 µM |  | > 100 µM | > 100 µM | > 100 µM | > 100 µM | > 100 µM | > 100 µM | > 100 µM | > 100 µM
